Source: patent publication US12257287B2, “Glucagon-derived peptide and use thereof” (Tianjin Institute of Pharmaceutical Research Co., Ltd., priority 2018, dated 2025)
Values after ≈ are worked out from the molar mass of the structure shown. Marks after values point to notes of the source that are not given here. Numbered stars: 1 amine (or outer) side, 2 acyl side, 3 side chain; on linkers, the order of the positions; unused ones are H or OH. Square brackets hold non-standard residues; d marks the D form. Side chains are listed from the residue outwards. Peptide text beside a SMILES is read from it. * marks the point of attachment. C18 diacid = O=C(O)CCCCCCCCCCCCCCCCC(=O)*; γGlu = O=C(O)[C@H](CCC(=O)[*:2])N[*:1]; AEEA = NCCOCCOCC(=O)O; Aib = CC(C)(N)C(=O)O

Assays:
GC receptor = target: T1, GC receptor (Homo sapiens, UniProt P47871); experiment: GC receptor mediated cAMP production in vitro (HEK293 cells transfected with GC receptor); assay type: cell-based; conditions: 20 min at 37° C., read-out: GCGR (nM EC50)
T1 construct: expressed in transfected cells; host or cells: HEK293 cells
T1 sequence (P47871 26-477): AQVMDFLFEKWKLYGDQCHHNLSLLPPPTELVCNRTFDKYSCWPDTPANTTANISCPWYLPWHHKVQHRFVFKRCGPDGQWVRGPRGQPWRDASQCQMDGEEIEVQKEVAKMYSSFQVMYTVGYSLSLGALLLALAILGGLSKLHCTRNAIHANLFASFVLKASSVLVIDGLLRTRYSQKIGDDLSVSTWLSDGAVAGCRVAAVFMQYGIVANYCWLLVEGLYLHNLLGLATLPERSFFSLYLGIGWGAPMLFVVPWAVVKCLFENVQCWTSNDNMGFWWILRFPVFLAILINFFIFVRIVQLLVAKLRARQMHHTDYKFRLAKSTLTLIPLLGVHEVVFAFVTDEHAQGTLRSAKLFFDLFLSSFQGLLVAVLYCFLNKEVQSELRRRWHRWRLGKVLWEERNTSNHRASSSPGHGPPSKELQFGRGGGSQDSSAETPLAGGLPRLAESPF
Text: The medium was removed, the cells were lysed, and cAMP values were detected referring to the detection method described for the assay kit.

[1] = Effect on body weight of DIO mice after 14 days' administration; assay type: in vivo, C57BL/6J mice; conditions: positive values indicate a decrease; for body weight change, Table 5: Example 4, DIO mice, 14 days' administration, methods as in Example 3
Text: C57BL/6J mice (n=35), model group (n=30) were fed with H10060 high-fat diet to induce obesity (DIO), blank control group (n=5) were fed with standard diet, both for 34 weeks. One day before the first administration, the model group was randomly divided into groups according to their body weight (average body weight range 45.0-52.0 g), with 5 mice in each group, which respectively were model control group, positive control group (semaglutide), and test sample group (1 #-4 # are compound 1, compound 4, compound 6 and compound 22, respectively). The blank control group and model control group were given saline subcutaneously every day, while the positive control group and test sample group were administrated by subcutaneous injection every day for 14 days. The body weight of the animals was weighed and recorded every day, and the change rate of body weight (%) was calculated by comparing the body weight at the last administration day with the initial body weight. (initial body weight−last body weight)/initial body weight=body weight change rate (%). Calculation formula: […]
Calculated positive values indicate a decrease and negative values indicate an increase.
(§1) Methods are the same as that in Example 3, the test results of effects on body weight are shown in Table 5, and the effects on blood glucose are shown in Table 6. In the table, 5 #-9 # are compound 27, compound 35, compound 54, compound 57, and compound 66, respectively.

[2] = Glucose tolerance test in glucose-loaded DIO mice; assay type: in vivo; design: AUC reduction rate (%), Table 6: concentration or dose not given beside the values; conditions: for AUC of blood glucose, Table 6: Example 4, DIO mice under glucose load, methods as in Example 3; for AUC reduction rate (%), Table 6: Example 4, compared with model control group, DIO mice under glucose load
Method: DIO mice fasted for 16 h, and 1 h after administration by subcutaneous injection, glucose solution (1 g/kg) was given intraperitoneally for glucose tolerance test. Blood glucose values were measured at 0.5, 1 and 1.5 h after glucose administration. The area under the blood glucose concentration curve (AUC) was calculated and compared with that of the model control group, and the blood glucose inhibition rate (%) was calculated.
as §1

physchem = assay type: physicochemical
[3] = Short-term administration: food intake and body weight in DIO mice; assay type: in vivo; conditions: 30 nmol/kg once every 24 h, twice, − decrease
Method: Method: diet-induced obese mice (DIO) with an average body weight of 52.5 g were divided into model control and test groups, 5 mice in each group. The test samples were dissolved in 10 mM PBS of pH7.4, injected once every 24 h at a dose of 30 nmol/kg, and administered twice. The model group was injected with solvent. Changes in food intake and body weight at 48 hours were measured, and the change rates were calculated compared to the day before administration.

[4] = Accelerated chemical stability in injection solvent system (HPLC-UV); assay type: physicochemical; conditions: 14 days, phosphate buffer pH 7.3 with Tween 80 and phenol, main peak area vs day 0
Method: The chemical stability of the compounds of the present invention in injection solution systems was evaluated by an accelerated stability test. Methods: an appropriate amount of compound of Example 1 was weighed, and dissolved in 10 mM pH8.5 sodium hydrogen phosphate buffer. The final pH value of the solution was adjusted to 7.3 with 0.1 N hydrochloric acid, and proper amounts of Tween 80 and phenol were added. The mixture was placed at 10° C. and 37° C. for 14 days, and detected by HPLC-UV. The main peak area was obtained by peak area normalization method, and the changes compared with day 0 were investigated. The HPLC detection method was the same as that in Example 6, and the mobile phase gradient was appropriately adjusted according to the situation of chromatographic peak separation.

[5] = pH 7.5, Solubility, pH 7.5, 10 mM phosphate buffer
[6] = pH 7.5, Solubility, pH 7.5, 20 mM phosphate buffer
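Wherever Solubility is given: compound added at 2 mg per mL of phosphate buffer, with the dissolved amount determined in the supernatant.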

EC50 (GC receptor) [nM]	solubility (physchem; [5]) [µg/mL]	solubility (physchem; [6]) [µg/mL]	Molecule	body weight change, Table 5 [1]	AUC of blood glucose, Table 6 [2] [mmol·h/L]	AUC reduction rate (%), Table 6 [2]	other results
0.193			CCCCCCCCCCCCCCCC(=O)N[C@@H](CCC(=O)N[C@@H](CCC(=O)NCCCC[C@H](NC(=O)[C@H](CC(=O)O)NC(=O)[C@H](CO)NC(=O)[C@@H](NC(=O)[C@H](Cc1ccccc1)NC(=O)[C@@H](NC(=O)CNC(=O)[C@H](CCC(N)=O)NC(=O)C(C)(C)NC(=O)[C@@H](N)Cc1c[nH]cn1)[C@@H](C)O)[C@@H](C)O)C(=O)N[C@@H](CO)C(=O)N[C@@H](CCCCN)C(=O)N[C@@H](Cc1ccc(O)cc1)C(=O)N[C@@H](CC(C)C)C(=O)N[C@@H](CCC(=O)O)C(=O)N[C@@H](CCC(=O)O)C(=O)N[C@@H](CCCNC(=N)N)C(=O)N[C@@H](C)C(=O)N[C@@H](C)C(=O)N[C@@H](CCCCN)C(=O)N[C@@H](CCC(=O)O)C(=O)N[C@@H](Cc1ccccc1)C(=O)N[C@H](C(=O)N[C@@H](CCC(=O)O)C(=O)N[C@@H](Cc1c[nH]c2ccccc12)C(=O)N[C@@H](CC(C)C)C(=O)N[C@@H](CCC(=O)O)C(=O)NCC(=O)NCC(=O)N1CCC[C@H]1C(=O)N[C@@H](CO)C(=O)N[C@@H](CO)C(=O)NCC(N)=O)C(C)C)C(=O)O)C(=O)O [Compound 5] (HELM PEPTIDE1{H.[Aib].Q.G.T.F.T.S.D.K.S.K.Y.L.E.E.R.A.A.K.E.F.V.E.W.L.E.G.G.P.S.S.G.[am]}|PEPTIDE2{[CCCCCCCCCCCCCCCC(=O)[*:2]].[gGlu].[gGlu]}$PEPTIDE1,PEPTIDE2,10:R3-3:R2$$$V2.0; N-terminus assumed)				body weight change, Table 5 ([1]; listed as 5#): 27.74; AUC of blood glucose, Table 6 ([2]; listed as 5#): 7.12 ± 1.30 mmol·h/L; AUC reduction rate (%), Table 6 ([2]; listed as 5#): 64.2** %
	1500 (≈ 347 µM)	1070 (≈ 247 µM)	CCCCCCCCCCCCCCCC(=O)N[C@@H](CCC(=O)N[C@@H](CCC(=O)NCCCC[C@H](NC(=O)[C@H](CCC(=O)O)NC(=O)[C@H](CCC(=O)O)NC(=O)[C@H](CC(C)C)NC(=O)[C@H](Cc1ccc(O)cc1)NC(=O)[C@H](CCCCN)NC(=O)[C@H](CO)NC(=O)[C@H](Cc1ccc(O)cc1)NC(=O)[C@H](CC(=O)O)NC(=O)[C@H](CO)NC(=O)[C@@H](NC(=O)[C@H](Cc1ccccc1)NC(=O)[C@@H](NC(=O)CNC(=O)[C@H](CCC(N)=O)NC(=O)C(C)(C)NC(=O)[C@@H](N)Cc1c[nH]cn1)[C@@H](C)O)[C@@H](C)O)C(=O)N[C@@H](CCCNC(=N)N)C(=O)N[C@@H](C)C(=O)N[C@@H](CCCNC(=N)N)C(=O)N[C@@H](CCC(=O)O)C(=O)N[C@@H](Cc1ccccc1)C(=O)N[C@H](C(=O)N[C@@H](C)C(=O)N[C@@H](Cc1c[nH]c2ccccc12)C(=O)N[C@@H](CC(C)C)C(=O)N[C@@H](CC(C)C)C(=O)N[C@@H](CCC(=O)O)C(=O)NCC(=O)NCC(=O)N1CCC[C@H]1C(=O)N[C@@H](CO)C(=O)N[C@@H](CO)C(=O)NCC(N)=O)C(C)C)C(=O)O)C(=O)O [Compound 9] (HELM PEPTIDE1{H.[Aib].Q.G.T.F.T.S.D.Y.S.K.Y.L.E.E.K.R.A.R.E.F.V.A.W.L.L.E.G.G.P.S.S.G.[am]}|PEPTIDE2{[CCCCCCCCCCCCCCCC(=O)[*:2]].[gGlu].[gGlu]}$PEPTIDE1,PEPTIDE2,17:R3-3:R2$$$V2.0)	19.9	8.71 ± 2.10	56.2** %	solubility (physchem; pH 8, Solubility, pH 8.0, 10 mM phosphate buffer): > 2000 µg/mL; solubility (physchem; pH 8, Solubility, pH 8.0, 20 mM phosphate buffer): 1760 µg/mL (≈ 407 µM)
0.018	> 2000	> 2000	CC(C)C[C@H](NC(=O)[C@H](Cc1c[nH]c2ccccc12)NC(=O)[C@H](C)NC(=O)[C@@H](NC(=O)[C@H](Cc1ccccc1)NC(=O)[C@H](CCC(=O)O)NC(=O)[C@H](CCCCN)NC(=O)[C@H](C)NC(=O)[C@H](C)NC(=O)[C@H](CCCNC(=N)N)NC(=O)[C@H](CCC(=O)O)NC(=O)[C@H](CCC(=O)O)NC(=O)[C@H](CC(C)C)NC(=O)[C@H](Cc1ccc(O)cc1)NC(=O)[C@H](CCCCN)NC(=O)[C@H](CO)NC(=O)[C@H](CCCCNC(=O)COCCOCCNC(=O)COCCOCCNC(=O)CC[C@H](NC(=O)CCCCCCCCCCCCCCCCC(=O)O)C(=O)O)NC(=O)[C@H](CC(=O)O)NC(=O)[C@H](CO)NC(=O)[C@@H](NC(=O)[C@H](Cc1ccccc1)NC(=O)[C@@H](NC(=O)CNC(=O)[C@H](CCC(N)=O)NC(=O)C(C)(C)NC(=O)[C@@H](N)Cc1c[nH]cn1)[C@@H](C)O)[C@@H](C)O)C(C)C)C(=O)N[C@@H](CCC(=O)O)C(=O)N[C@@H](C)C(=O)NCC(=O)NCC(=O)N1CCC[C@H]1C(=O)N[C@@H](CO)C(=O)N[C@@H](CO)C(=O)NCC(N)=O [Compound 22] (H-H[Aib]QGTFTSDK([AEEA-AEEA-γGlu-C18 diacid])SKYLEERAAKEFVAWLEAGGPSSG-NH2; N-terminus assumed)				Rate of change in food intake (%) ([3]; at 48 hours vs day before administration): −62%; Body weight change ([3]; at 48 hours): -2.6 g; Change in purity % (10° C.) ([4]; 10° C.): −2.0%; Change in purity % (37° C.) ([4]; 37° C.): −5.7%
			HAibQGTFTSDYSKYLEEK*RAREFVEWLLEAGGPSSG-Amid (HXQGTFTSDYSKYLEEKRAREFVEWLLEAGGPSSG; HELM PEPTIDE1{H.[Aib].Q.G.T.F.T.S.D.Y.S.K.Y.L.E.E.K.R.A.R.E.F.V.E.W.L.L.E.A.G.G.P.S.S.G.[am]}|PEPTIDE2{[CCCCCCCCCCCCCCCC(=O)[*:2]].[gGlu].[gGlu]}$PEPTIDE1,PEPTIDE2,17:R3-3:R2$$$V2.0; N-terminus assumed; SMILES CCCCCCCCCCCCCCCC(=O)N[C@@H](CCC(=O)N[C@@H](CCC(=O)NCCCC[C@H](NC(=O)[C@H](CCC(=O)O)NC(=O)[C@H](CCC(=O)O)NC(=O)[C@H](CC(C)C)NC(=O)[C@H](Cc1ccc(O)cc1)NC(=O)[C@H](CCCCN)NC(=O)[C@H](CO)NC(=O)[C@H](Cc1ccc(O)cc1)NC(=O)[C@H](CC(=O)O)NC(=O)[C@H](CO)NC(=O)[C@@H](NC(=O)[C@H](Cc1ccccc1)NC(=O)[C@@H](NC(=O)CNC(=O)[C@H](CCC(N)=O)NC(=O)C(C)(C)NC(=O)[C@@H](N)Cc1c[nH]cn1)[C@@H](C)O)[C@@H](C)O)C(=O)N[C@@H](CCCNC(=N)N)C(=O)N[C@@H](C)C(=O)N[C@@H](CCCNC(=N)N)C(=O)N[C@@H](CCC(=O)O)C(=O)N[C@@H](Cc1ccccc1)C(=O)N[C@H](C(=O)N[C@@H](CCC(=O)O)C(=O)N[C@@H](Cc1c[nH]c2ccccc12)C(=O)N[C@@H](CC(C)C)C(=O)N[C@@H](CC(C)C)C(=O)N[C@@H](CCC(=O)O)C(=O)N[C@@H](C)C(=O)NCC(=O)NCC(=O)N1CCC[C@H]1C(=O)N[C@@H](CO)C(=O)N[C@@H](CO)C(=O)NCC(N)=O)C(C)C)C(=O)O)C(=O)O) [Compound 8, 32; * = -γE-γE-OC16H31]	24.1	8.11 ± 1.92	59.2** %	
			semaglutide [reference compound]	16.29	8.33 ± 1.09	58.1** %	body weight change rate, Table 3 ([1]; DIO mice, subcutaneous injection every day for 14 days, (initial−last)/initial): 13.20%; AUC of blood glucose, Table 4 ([2]; DIO mice fasted 16 h, glucose 1 g/kg i.p. 1 h after s.c. administration, 0.5, 1, 1.5 h): 8.97 ± 1.27 mmol·h/L; AUC reduction rate (%), Table 4 ([2]; blood glucose inhibition rate compared with model control group, DIO mice, glucose 1 g/kg i.p.): 57.7** %
